Results from PMC6044451 (Journal of medicinal chemistry, 2018).

Tested on: HIV-1LAI
Assay: Antiviral activity in MT-2 human T-lymphoid cells exposed to HIV-1LAI
Assay type: cell-based

Row | IC50 (Human immunodeficiency virus 1, MT2, in Homo sapiens, read-out: antiviral IC50) | SMILES | improvement in antiviral activity compared to inhibitor 4b (MT-2 cells exposed to HIV-1LAI, versus 4b)
1 |  | COc1ccc(S(=O)(=O)N(CC(C)C)C[C@@H](O)[C@H](Cc2ccccc2)NC(=O)O[C@H]2C[C@H]3CO[C@H]4OCC[C@@H]2[C@@H]34)cc1 [Inhibitor 4c, (2aR,2a^1R,4S,4aR,7aR)-Octahydro-2H-1,7-dioxacyclopenta[cd]inden-4-yl ((2S,3R)-3-hydroxy-4-((N-isobutyl-4-methoxyphenyl)sulfonamido)-1-phenylbutan-2-yl)carbamate] | 4 fold
2 | 21 nM | CC(C)(C)NC(=O)[C@@H]1C[C@@H]2CCCC[C@@H]2CN1C[C@@H](O)[C@H](Cc1ccccc1)NC(=O)[C@H](CC(N)=O)NC(=O)c1ccc2ccccc2n1 [SQV, saquinavir] | 
